Here are results for six molecules from patent US20230303604A1, “METALLIC TRANS-(N-HETEROCYCLIC CARBENE)-AMINE-PLATINUM COMPLEXES AND USES THEREOF FOR TREATING CANCER” (INSTITUT CURIE, priority 2020, published 2023).

Holding throughout (format): cell-based
The subject of data set [1] is A2780cis (A2780/DDP) cells. The experiment in a line: Cell proliferation evaluation on cisplatin-resistant A2780cis. The conditions noted are these: for ability to counteract the cisplatin resistance: A780cis cell line. How it is done: (§1) Cell culture. The A2780 ovarian carcinoma cell lines were purchased from ECACC (Salisbury, UK) and were grown in complete RPMI medium supplemented with 10% fetal calf serum, in the presence of penicillin, streptomycin. The resistance of A2780/DDP cells to cisplatin was maintained by monthly treatment with 1 μM cisplatin for 4 days. H1299 Non Small Cell Lung Carcinoma (ATCC® CRL-5803™) and were grown in RPMI medium supplemented with 10% fetal calf serum, 1% HEPES, 1% Sodium Pyruvate in the presence of penicillin and streptomycin. In addition, four cervical cancerous cell lines, already resistant to some conventional chemotherapy (Gemcitabin, methothrexate, vinorelbin and/or cisplatin) were chosen: IC5 (from Institut Curie), CRL1550 (ATCC® CRL1550™), CC11^+ (Cellosaurus CVCL_DF82) and CRL7920 (ATCC® CRL7920™). They were grown in complete RPMI medium supplemented with 10% fetal calf serum, in the presence of penicillin, streptomycin.
Cell proliferation evaluation. Cells were treated with various concentrations of NHC-Pt, at 37° C. under humidity and 5% CO2 conditions for 96 h. Cellular growth was quantified using the Moxi Z Mini automated cell counter (Orflox technology). CellTiter Glo® Luminescent Cell Viability Assay following the kit instructions (Promega) was also used. But since doses that inhibit 50% of cell proliferation (IC50) not always correlated to the number of cells, as previously observed (Uehara, T., Mitsuhashi, A., Tsuruoka, N., and Shozu, M. (2015) Metformin potentiates the anticancer effects of cisplatin under normoxic conditions in vitro, Oncology reports 33, 744-750), cell counting was privileged. […]

The next data set has as its system A2780 cell lines. The experiment in a line: Radiosensitization assay on A2780. The conditions noted are these: A2780, 1 μM complex, 1 day pretreatment, D10 six days post-irradiation. On the procedure: (§2) For one day or 10 min pretreatment, cells were seeded at a number allowing 5 doubling populations growth without reaching confluence in the untreated samples. They were then pretreated during the time indicated at the indicated NHC-Pt concentrations, irradiated at 1, 2, 3 and 4 Gy for A2780 cell lines and 2. 4. 6 and 8 Gy for H1299 and allow growing until 6 days. IC5 cells were irradiated at 1, 2, 3, 4 and 5 Gy, CC11^+ were irradiated at 2, 3, 4, 5 and 6 Gy and allow growing until 7 days, CRL1550 were irradiated at 2, 4, 6 and 8 Gy and allow growing until 5 days. CRL79200 were irradiated at 1, 2, 3 and 4 Gy and allow growing until 15 days. For 4 days pretreatment, cells were seeding in the conditions of cell cytotoxicity determination, trypsinised, seeded at a number allowing 5 doubling population growth without reaching confluence in the untreated samples and treated one day before irradiation. Irradiation is using GSR D1 irradiator (gamma-ray, 662 keV). The cells were left to grow for 6 days to allow at least 5 population doublings. Cell count of each well is taken and a graph is plotted with the percentage survival of each treatment of cells with its control (0 Gy). […]
(§3) All the complexes were first evaluated for their radiosensitizing properties on A2780 and H1299 cell lines. […] The D10 doses were evaluated as the doses allowing 10% survival six days post-irradiation. […]

Another data set relates to H1299 cell lines. The experiment in a line: Radiosensitization assay on H1299. The note with it: H1299, 1 μM complex, 1 day pretreatment, D10 six days post-irradiation. How it is done:
as §2, §3

Data set [2] has as its system cervical cancerous cell lines (IC5, CC11^+, CRL1550, CRL7920). Briefly: Cell proliferation evaluation, statements over the cervical cancerous cell lines. The note with it: three cervical cancerous cell lines. On the procedure: as §1
(§4) Cell proliferation evaluation. Cells were treated with various concentrations of NHC-Pt, at 37° C. under humidity and 5% CO2 conditions for 96 h. Cellular growth was quantified using the Moxi Z Mini automated cell counter (Orflox technology). CellTiter Glo® Luminescent Cell Viability Assay following the kit instructions (Promega) was also used. […]

The next data set has as its system A2780 cells. The experiment in a line: Immunofluorescence assay, DNA damage repair kinetics (γ-H2AX and 53BP1 foci). The conditions noted are these: A2780, 2 Gy, 2 h and 6 h post irradiation, 1 day pre-treatment. On the procedure:
Immunofluorescence Assays. A2780 cells were plated on coverslips in 6-well plates. After 1 day of incubation with the various NHC-Pt at their RS doses, cells were irradiated at 2 Gys, incubated the time indicated post-irradiation, washed with phosphate-buffered saline (PBS), then fixed 10 minutes in 4% formaldehyde. After a wash with PBS, cells were permeabilised 2 min using 0.5% Triton X-100 and is washed with PBS. The cells were incubated in blocking buffer (5% bovine serum albumin in PBS) for 30 min before being incubated for 1 h with the primary mouse monoclonal antibody against g-H2AX (milipore) or 53BP1. After three washes with PBS, the cells were incubated for an additional 1 h with the Alexa Fluor 488-conjugated secondary antibody (Alexa Fluor 488 goat anti-mouse IgG; Life Technologies). Nuclei were labeled using DAPI and the coverslides were mounted with Vectashield™. Acquisitions were performed on a3D-dev or 3D-SIM in the microscopy platform from Institut Curie. ImageJ software ([…]) was used to project the z-stacks and count the number of g-H2AX or 53BP1 spots as well as their intensity and size in nuclei. […]
The inventors analyzed, by immunofluorescence, the γ-H2AX and 53BP1 foci, γ-H2AX being a DNA damage sensor and 53BP1 being a DNA repair sensor at different time post-irradiation (0.5-24 h).

Data set [3] concerns A2780 ovarian carcinoma cell lines. The experiment in a line: Cell proliferation evaluation (cell counting) on A2780. The conditions noted are these: A2780, 4 days (96 h) treatment. How it is done: as §1, §4
Data set [4] relates to IC5 cervical cancerous cell line. Briefly: Cell proliferation evaluation on IC5. The conditions noted are these: IC5, 4 days treatment. On the procedure:
as §1, §4

Data set [5] has as its system CC11^+ cervical cancerous cell line. Briefly: Cell proliferation evaluation on CC11+. The conditions noted are these: 4 days treatment. How it is done:
as §1, §4

In data set [6] the test system is CRL1550 cervical cancerous cell line. Briefly: Cell proliferation evaluation on CRL1550. The note with it: CRL1550, 4 days treatment. How it is done:
as §1, §4

As to `CN1C=CN(C)[CH]1[Pt]([NH2])([I])[I]` [MS113, trans-Diiodo(ammonia)(1,3-dimethylimidazol-2-ylidene)platinum], in data set [1], the “ability to counteract the cisplatin resistance” value is given as “it is not the case”.
As to `CN1C=CN(C)[CH]1[Pt]([I])([I])[NH]C1CCCCC1` [MS140, trans-Diiodo(N-cyclohexylamine)(1,3-dimethylimidazol-2-ylidene)platinum], the “radiosensitizing properties at 1 μM” value with A2780 cell lines and with H1299 cell lines was “significant radiosensitizing properties” in each case.
Regarding `CN1C=CN(CCCCCCN2C=CN(C)[CH]2[Pt]([I])([I])[N]2CCOCC2)[CH]1[Pt]([I])([I])[N]1CCOCC1` (stereo not drawn) [C7, [1,1′-(hexane-1,6-diyl)bis(3-methylimidazol-2-ylidene)]bis[trans-diiodo(N-morpholine)platinum]], the “cytotoxic activity as compared to C2” value in [2] is recorded as “improved cytotoxic activity”.
For `CN1C=CN(CCCCCCN2C=CN(C)[CH]2[Pt]([NH2])([I])[I])[CH]1[Pt]([NH2])([I])[I]` (stereo not drawn) [C2, [1,1′-(hexane-1,6-diyl)bis(3-methylimidazol-2-ylidene)]bis[trans-diiodo(ammonia)platinum]], the “ability to counteract the cisplatin resistance” value in data set [1] was “able to counteract the cisplatin resistance”. In addition, the “radiosensitizing properties at 1 μM” value with A2780 cell lines and with H1299 cell lines was “significant radiosensitizing properties” each time. Besides, the “DNA damage repair after irradiation (γ-H2AX foci)” value in the data set on A2780 cells is given as “induced a delay in the DNA damage repair”.
Consider `OCCN1C=CN(CCCCCCN2C=CN(CCO)[CH]2[Pt]([I])([I])[NH]C2CCCCC2)[CH]1[Pt]([I])([I])[NH]C1CCCCC1` (stereo not drawn) [C9, {1,1′-(hexane-1,6-diyl)bis[3-(2-hydroxethyl)imidazol-2-ylidene]}bis{[trans-diiodo(N-cyclohexylamine)platinum]}], for which the “cytotoxic activity as compared to C2” value in data set [2] is listed as “improved cytotoxic activity”.
Take `N.N.[Cl][Pt][Cl]` [Cisplatin, cisplatin]: the IC50 in [3] is 0.3 µM; in [1] (cisplatin-resistant cell line, 96 h, read-out: IC50 in A780cis cell line) it was 6 µM; in [4], 0.49 ± 0.05 µM; in data set [5], 0.006 µM; in data set [6], 0.39 ± 0.04 µM.
